# Test results published in PMC12752627, “Discovery of a Potent and Selective TEAD Degrader with Durable Degradation Activity” (Advanced Science, 2025).
# How the values were obtained:
# 867 cancer cell lines = experiment: PRISM assay (barcoded cell line screening, 5 days); type: cell-based; design: KG-FP-003-AUC: scale not given here;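 note: top test concentration 10 mM in eight-point dilution series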
# Experimental: The principle of the PRISM assay has been described elsewhere and was conducted as previously outlined by the PRISM team at the Broad Institute.^[ [14], [31] ^] In PRISM (MTS027) experiments, KG‐FP‐003 was tested across 867 different cancer cell lines. Cells were treated with eight concentration gradients, ranging from 4.6 nM to […], in triplicate dilutions over a period of five days. Each plate was treated with 20 µM bortezomib as a positive control and DMSO as a negative control. Three replicate experiments were performed for each compound. The resulting data were analyzed using GraphPad PRISM 9.5.
# TEAD1 = TEAD1 (Homo sapiens, UniProt P28347); experiment: Immunoblot in wild-type / CRBN-knockout HEK293T cells and rescue experiment; type: cell-based; design: endogenous in cells; host or cells: HEK293T wild-type and CRBN-knockout; settings: 6 h treatment
# Chain of TEAD1 (P28347 whole entry): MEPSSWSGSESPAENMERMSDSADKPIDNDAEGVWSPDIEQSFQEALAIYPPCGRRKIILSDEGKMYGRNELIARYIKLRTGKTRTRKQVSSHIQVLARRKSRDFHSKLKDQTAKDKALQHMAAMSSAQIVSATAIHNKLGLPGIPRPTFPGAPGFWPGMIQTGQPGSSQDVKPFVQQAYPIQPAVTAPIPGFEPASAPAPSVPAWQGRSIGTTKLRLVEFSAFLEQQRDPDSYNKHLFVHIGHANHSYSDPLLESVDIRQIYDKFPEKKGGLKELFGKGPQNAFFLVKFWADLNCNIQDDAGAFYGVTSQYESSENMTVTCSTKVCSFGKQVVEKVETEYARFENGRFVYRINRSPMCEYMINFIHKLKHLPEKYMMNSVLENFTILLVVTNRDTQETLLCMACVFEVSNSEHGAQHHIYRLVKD
# Experimental: Immunoblotting was carried out as previously described.^[ [29] ^] Cells were seeded in 6‐well plates (Yeasen, #84011ES50) at a density of 1 million cells per well. The following day, cells were treated with compounds at the required concentrations, with the DMSO concentration kept below 0.4‰ to prevent toxic effects on the cells. The collected cell pellets were washed three times with PBS (Meilunbio, #MA0015) and resuspended in 120 µL of RIPA lysis buffer (Meilunbio, #MA0151) containing 1% protease inhibitor (Meilunbio, #MB2678‐2). The cells were then sonicated on ice and centrifuged at 12 000 rpm for 15 min at 4 °C to remove cellular debris. Protein concentrations were determined using the BCA Protein Quantification Kit (Meilunbio, #MA0082‐1). The protein samples were normalized, boiled at 99 °C for 10 min, and then subjected to electrophoresis on a 10% SDS‐PAGE gel. The separated protein bands were transferred to nitrocellulose membranes, blocked with TBST containing 5% BSA, and incubated with the indicated primary antibodies. Finally, the blots were imaged using an Amersham Typhoon NIR imager.
smiles,measurement,setting,value
CNC(=O)c1cc2c(c(F)c1-c1c(Cl)c(F)cc3c1C[C@@](CN[C@H]1CC[C@H](C(=O)N4CCC(CC5CCN(C(=O)COc6ccc(N7CCC(=O)NC7=O)c(C)c6)CC5)CC4)CC1)(c1ccccc1)O3)[C@@H](O)[C@@H](C)C2 [KG-FP-003],PRISM AUC,"867 cancer cell lines; Cell line: KLE, 5 days",0.53
same,KG-FP-003-AUC,867 cancer cell lines; DANG_PANCREAS ACH-000243 PR500,0.98
same,KG-FP-003-AUC,867 cancer cell lines; DAOY_CENTRAL_NERVOUS_SYSTEM ACH-000211 PR300,0.93
same,KG-FP-003-AUC,867 cancer cell lines; DAOY_CENTRAL_NERVOUS_SYSTEM ACH-000211 PR500,0.92
same,KG-FP-003-AUC,867 cancer cell lines; DBTRG05MG_CENTRAL_NERVOUS_SYSTEM ACH-000863 PR500,0.64
same,KG-FP-003-AUC,867 cancer cell lines; DEL_HAEMATOPOIETIC_AND_LYMPHOID_TISSUE ACH-000233 PR300,0.87
same,KG-FP-003-AUC,867 cancer cell lines; DETROIT562_UPPER_AERODIGESTIVE_TRACT ACH-000207 PR500,0.81
same,KG-FP-003-AUC,867 cancer cell lines; DKMG_CENTRAL_NERVOUS_SYSTEM ACH-000244 PR500,0.85
same,KG-FP-003-AUC,867 cancer cell lines; DL_SOFT_TISSUE ACH-001059 PR300,0.70
same,KG-FP-003-AUC,867 cancer cell lines; DMS53_LUNG ACH-000698 PR300,1.00
same,KG-FP-003-AUC,867 cancer cell lines; DMS273_LUNG ACH-000749 PR500,0.99
same,KG-FP-003-AUC,867 cancer cell lines; DND41_HAEMATOPOIETIC_AND_LYMPHOID_TISSUE ACH-000981 PR300,0.75
same,KG-FP-003-AUC,867 cancer cell lines; DOHH2_HAEMATOPOIETIC_AND_LYMPHOID_TISSUE ACH-000056 PR300,0.76
same,KG-FP-003-AUC,867 cancer cell lines; DOTC24510_CERVIX ACH-001341 PR300,0.78
same,KG-FP-003-AUC,867 cancer cell lines; DU145_PROSTATE ACH-000979 PR500,0.93
same,KG-FP-003-AUC,867 cancer cell lines; DU4475_BREAST ACH-000258 PR300,0.97
same,KG-FP-003-AUC,867 cancer cell lines; DV90_LUNG ACH-000925 PR500,1.00
same,KG-FP-003-AUC,867 cancer cell lines; EB1_HAEMATOPOIETIC_AND_LYMPHOID_TISSUE ACH-000877 PR300,0.99
same,KG-FP-003-AUC,867 cancer cell lines; EBC1_LUNG ACH-000563 PR500,0.77
same,KG-FP-003-AUC,867 cancer cell lines; ECC2_BILIARY_TRACT ACH-001997 PR300,0.76
same,KG-FP-003-AUC,867 cancer cell lines; ECGI10_OESOPHAGUS ACH-000305 PR500,0.96
same,KG-FP-003-AUC,867 cancer cell lines; EFE184_ENDOMETRIUM ACH-000435 PR300,0.72
same,KG-FP-003-AUC,867 cancer cell lines; EFM19_BREAST ACH-000330 PR300,0.99
same,KG-FP-003-AUC,867 cancer cell lines; EFM192A_BREAST ACH-000117 PR500,0.99
same,KG-FP-003-AUC,867 cancer cell lines; EFO21_OVARY ACH-000308 PR500,0.71
same,KG-FP-003-AUC,867 cancer cell lines; EFO27_OVARY ACH-000936 PR500,0.77
same,KG-FP-003-AUC,867 cancer cell lines; EGI1_BILIARY_TRACT ACH-001494 PR300,0.88
same,KG-FP-003-AUC,867 cancer cell lines; EKVX_LUNG ACH-000706 PR300,0.71
same,KG-FP-003-AUC,867 cancer cell lines; EM2_HAEMATOPOIETIC_AND_LYMPHOID_TISSUE ACH-000295 PR300,0.94
same,KG-FP-003-AUC,867 cancer cell lines; EMTOKA_ENDOMETRIUM ACH-001495 PR300,0.83
same,KG-FP-003-AUC,867 cancer cell lines; EOL1_HAEMATOPOIETIC_AND_LYMPHOID_TISSUE ACH-000198 PR300,0.69
same,KG-FP-003-AUC,867 cancer cell lines; ES2_OVARY ACH-000906 PR500,0.62
same,KG-FP-003-AUC,867 cancer cell lines; ESS1_ENDOMETRIUM ACH-000913 PR500,0.56
same,KG-FP-003-AUC,867 cancer cell lines; EW8_BONE ACH-000499 PR300,0.98
same,KG-FP-003-AUC,867 cancer cell lines; EWS502_BONE ACH-000279 PR300,0.99
same,KG-FP-003-AUC,867 cancer cell lines; EWS502_BONE ACH-000279 PR500,0.99
same,KG-FP-003-AUC,867 cancer cell lines; FADU_UPPER_AERODIGESTIVE_TRACT ACH-000846 PR500,0.92
same,KG-FP-003-AUC,867 cancer cell lines; FLO1_OESOPHAGUS ACH-001500 PR300,0.75
same,KG-FP-003-AUC,867 cancer cell lines; FTC133_THYROID ACH-000903 PR500,0.99
same,KG-FP-003-AUC,867 cancer cell lines; FTC238_THYROID ACH-000897 PR500,0.91
same,KG-FP-003-AUC,867 cancer cell lines; G292CLONEA141B1_BONE ACH-000082 PR300,0.64
same,KG-FP-003-AUC,867 cancer cell lines; G292CLONEA141B1_BONE ACH-000082 PR500,0.53
same,KG-FP-003-AUC,867 cancer cell lines; G361_SKIN ACH-000572 PR500,1.00
same,KG-FP-003-AUC,867 cancer cell lines; G402_SOFT_TISSUE ACH-000375 PR300,0.43
same,KG-FP-003-AUC,867 cancer cell lines; G402_SOFT_TISSUE ACH-000375 PR500,0.69
same,KG-FP-003-AUC,867 cancer cell lines; G415_BILIARY_TRACT ACH-001850 PR300,0.65
same,KG-FP-003-AUC,867 cancer cell lines; GAMG_CENTRAL_NERVOUS_SYSTEM ACH-000098 PR500,0.45
same,KG-FP-003-AUC,867 cancer cell lines; GB2_BILIARY_TRACT ACH-001961 PR300,0.92
same,KG-FP-003-AUC,867 cancer cell lines; GCIY_STOMACH ACH-000047 PR500,0.98
same,KG-FP-003-AUC,867 cancer cell lines; GCT27_TESTIS ACH-001502 PR300,0.73
same,KG-FP-003-AUC,867 cancer cell lines; GCT_SOFT_TISSUE ACH-000835 PR500,0.53
same,KG-FP-003-AUC,867 cancer cell lines; GI1_CENTRAL_NERVOUS_SYSTEM ACH-000756 PR500,0.74
same,TEAD degradation in CRBN-null HEK293T cells,TEAD1,minimal
